Data as given in patent US11793849B2, “Method of Chinese herbal medicine extract used for treating multiple diseases caused by drug resistant bacteria infection” (priority 2016, dated 2023).
Like-named read-outs stand apart in the source and are kept apart here.

Experiments:
[1] = tested on: MDRPA; test: Checkerboard assay (combined-use MIC, FIC); format: cell-based, Pseudomonas aeruginosa; conditions: for FIC, all strains / MIC50 of the antibiotic after combined use / MIC90 of the antibiotic after combined use / reduction of the antibiotic's MIC50 vs single use / reduction of the antibiotic's MIC90 vs single use / share of strains with FIC ≤ 0.5: 20 MDRPAs
Experimental: Test methods of the sensibilization effects of the test product to similar antibiotics: it is operated by referring to a checkerboard assay recommended by NCCLS.
The checkerboard assay is performed in a 96-pore sterile culture plate.
Calculation of a Fractional Inhibitory Concentration (FIC): FIC=S20b combined-use MIC/S20b single-use MIC+antibiotic combined-use MIC/antibiotic single-use MIC. By calculating the FIC, the combined antibacterial interaction between the EA and the antibiotic is evaluated, with synergistic effect for FIC≤0.5, additive effect for 0.5<FIC≤1, indifferent effect for 1<FIC≤2 and antagonistic effect for FIC>2. According to a sterile growth pore, the optimum concentration ratio between the EA and the antibiotic is founded out. At last, the effect of the EA to strengthen the efficacy of the antibiotic is evaluated.

[2] = tested on: MDRAB; test: MIC determination, microdilution broth method; format: cell-based, Acinetobacter baumannii
Experimental: Determination methods of a Minimal Inhibitory Concentration (MIC) and a Minimum Bactericidal Concentration (MBC) of a test product: the MIC and the MBC of the Pithecellobium clypearia Benth water or ethanol extract to the MDRAB are determined by a microdilution broth method. And it is operated by referring to the microdilution broth method recommended by National Committee for Clinical Laboratory Standards (NCCLS).

[3] = tested on: ATCC27853; test: MIC determination, control strain; format: cell-based
Experimental: Determination methods of a Minimal Inhibitory Concentration (MIC) and a Minimum Bactericidal Concentration (MBC) of a test product: the MIC and the MBC of the Pithecellobium clypearia Benth water or ethanol extract to the MDRAB are determined by a microdilution broth method.

[4] = antibiotic with 10% ethanol extract
[5] = antibiotic with 60% ethanol extract
[6] = antibiotic with 95% ethanol extract
[7] = antibiotic with EA (water extract)
[8] = single use, 20 MDRABs, EA=10% ethanol extract
[9] = single use, 20 MDRABs, EA=water extract
[10] = single use, 20 MDRABs, section of the 95% ethanol extract

CC(C)(O/N=C(\C(=O)N[C@@H]1C(=O)N2C(C(=O)[O-])=C(C[n+]3ccccc3)CS[C@H]12)c1csc(N)n1)C(=O)O [CAZ, Ceftazidime]
32 µg/mL: combined-use MIC ([1]; strain P5, EA (P. clypearia 10% ethanol extract) combined with CAZ) | combined-use MIC ([1]; strain P5, EA (P. clypearia water extract) combined with CAZ) | combined-use MIC ([1]; strain P7, EA (P. clypearia 10% ethanol extract) combined with CAZ) | combined-use MIC ([1]; strain P7, EA (P. clypearia water extract) combined with CAZ) | combined-use MIC ([1]; strain P18, EA (P. clypearia 10% ethanol extract) combined with CAZ)
128 µg/mL: MIC90 of the antibiotic after combined use [1, 6] | combined-use MIC ([1]; strain P15, EA (P. clypearia 10% ethanol extract) combined with CAZ) | combined-use MIC ([1]; strain P15, EA (P. clypearia water extract) combined with CAZ) | MIC ([2]; Acinetobacter baumannii, strain A1, EA=P. clypearia 95% ethanol extract, read-out: single-use MIC)
35%: share of strains with FIC ≤ 0.5 [1, 4]
256 µg/mL: combined-use MIC ([1]; strain P6, EA (P. clypearia 10% ethanol extract) combined with CAZ) | combined-use MIC ([1]; strain P6, EA (P. clypearia water extract) combined with CAZ) | MIC ([2]; Acinetobacter baumannii, strain A4, EA=P. clypearia 95% ethanol extract, read-out: single-use MIC) | MIC ([2]; Acinetobacter baumannii, strain A13, EA=P. clypearia 95% ethanol extract, read-out: single-use MIC) | MIC ([2]; Acinetobacter baumannii, strain A15, EA=P. clypearia 95% ethanol extract, read-out: single-use MIC) | MIC ([2]; Acinetobacter baumannii, strain A17, EA=P. clypearia 95% ethanol extract, read-out: single-use MIC) | MIC ([2]; Acinetobacter baumannii, strain A19, EA=P. clypearia 95% ethanol extract, read-out: single-use MIC)
45%: share of strains with FIC ≤ 0.5 [1, 7]
≤ 2: FIC, all strains [1, 4] | FIC, all strains [1, 5] | FIC, all strains [1, 6] | FIC, all strains [1, 7]
> 512 µg/mL: MIC ([2]; Acinetobacter baumannii, strain A6, EA=60% ethanol extract, read-out: MIC) | MIC ([2]; Acinetobacter baumannii, strain A6, EA=95% ethanol extract, read-out: MIC) | MIC ([2]; Acinetobacter baumannii, strain A6, single use, EA=10% ethanol extract, read-out: MIC) | MIC ([2]; Acinetobacter baumannii, strain A6, single use, EA=water extract, read-out: MIC) | MIC ([2]; Acinetobacter baumannii, strain A7, EA=60% ethanol extract, read-out: MIC) | MIC ([2]; Acinetobacter baumannii, strain A7, EA=95% ethanol extract, read-out: MIC) | MIC ([2]; Acinetobacter baumannii, strain A7, single use, EA=10% ethanol extract, read-out: MIC) | MIC ([2]; Acinetobacter baumannii, strain A7, single use, EA=water extract, read-out: MIC)
16 µg/mL: MIC50 of the antibiotic after combined use [1, 4] | MIC50 of the antibiotic after combined use [1, 6] | combined-use MIC ([1]; strain P1, EA (P. clypearia 10% ethanol extract) combined with CAZ) | combined-use MIC ([1]; strain P2, EA (P. clypearia 10% ethanol extract) combined with CAZ) | combined-use MIC ([1]; strain P2, EA (P. clypearia water extract) combined with CAZ) | combined-use MIC ([1]; strain P18, EA (P. clypearia water extract) combined with CAZ)
4 µg/mL: combined-use MIC ([1]; strain P9, EA (P. clypearia 10% ethanol extract) combined with CAZ) | combined-use MIC ([1]; strain P9, EA (P. clypearia water extract) combined with CAZ) | combined-use MIC ([1]; strain P13, EA (P. clypearia 10% ethanol extract) combined with CAZ) | combined-use MIC ([1]; strain P13, EA (P. clypearia water extract) combined with CAZ) | MIC ([3]; EA=10% ethanol extract, read-out: MIC) | MIC ([3]; EA=60% ethanol extract, read-out: MIC) | MIC ([3]; EA=95% ethanol extract, read-out: MIC) | MIC ([3]; EA=P. clypearia 10% ethanol extract, read-out: MIC (single use)) | MIC ([3]; EA=P. clypearia water extract, read-out: MIC (single use)) | MIC ([3]; EA=water extract, read-out: MIC) | MIC ([3]; single use, EA = 60% ethanol extract, read-out: MIC) | MIC ([3]; single use, EA = 95% ethanol extract, read-out: MIC)
40%: share of strains with FIC ≤ 0.5 [1, 5]
1024 µg/mL: MIC ([2]; strain A6, single use, EA=10% ethanol extract) | MIC ([2]; strain A6, single use, EA=water extract) | MIC ([2]; strain A7, single use, EA=10% ethanol extract) | MIC ([2]; strain A7, single use, EA=water extract)
512 µg/mL: MIC ([2]; Acinetobacter baumannii, strain A2, EA=P. clypearia 95% ethanol extract, read-out: single-use MIC) | MIC ([2]; Acinetobacter baumannii, strain A3, EA=P. clypearia 95% ethanol extract, read-out: single-use MIC) | MIC ([2]; Acinetobacter baumannii, strain A8, EA=P. clypearia 95% ethanol extract, read-out: single-use MIC) | MIC ([2]; Acinetobacter baumannii, strain A9, EA=P. clypearia 95% ethanol extract, read-out: single-use MIC) | MIC ([2]; Acinetobacter baumannii, strain A10, EA=P. clypearia 95% ethanol extract, read-out: single-use MIC) | MIC ([2]; Acinetobacter baumannii, strain A11, EA=P. clypearia 95% ethanol extract, read-out: single-use MIC) | MIC ([2]; Acinetobacter baumannii, strain A12, EA=P. clypearia 95% ethanol extract, read-out: single-use MIC) | MIC ([2]; Acinetobacter baumannii, strain A14, EA=P. clypearia 95% ethanol extract, read-out: single-use MIC) | MIC ([2]; Acinetobacter baumannii, strain A16, EA=P. clypearia 95% ethanol extract, read-out: single-use MIC) | MIC ([2]; Acinetobacter baumannii, strain A18, EA=P. clypearia 95% ethanol extract, read-out: single-use MIC) | MIC ([2]; Acinetobacter baumannii, strain A20, EA=P. clypearia 95% ethanol extract, read-out: single-use MIC) | MIC50 ([2]; Acinetobacter baumannii, single use, 20 MDRABs, section of the 60% ethanol extract, read-out: MIC50) | MIC90 ([2]; Acinetobacter baumannii, single use, 20 MDRABs, section of the 60% ethanol extract, read-out: MIC90) | MIC50 ([2]; MDRABs, EA=60% ethanol extract) | MIC90 ([2]; MDRABs, EA=60% ethanol extract) | MIC50 ([2]; MDRABs, EA=95% ethanol extract) | MIC90 ([2]; MDRABs, EA=95% ethanol extract) | MIC50 [2, 8] | MIC90 [2, 8] | MIC50 [2, 9] | MIC90 [2, 9] | MIC50 [2, 10] | MIC90 [2, 10]
25%: share of strains with FIC ≤ 0.5 [1, 6]
64 µg/mL: MIC90 of the antibiotic after combined use [1, 4] | MIC90 of the antibiotic after combined use [1, 5] | MIC90 of the antibiotic after combined use [1, 7] | combined-use MIC ([1]; strain P4, EA (P. clypearia 10% ethanol extract) combined with CAZ) | combined-use MIC ([1]; strain P4, EA (P. clypearia water extract) combined with CAZ) | combined-use MIC ([1]; strain P8, EA (P. clypearia 10% ethanol extract) combined with CAZ) | combined-use MIC ([1]; strain P8, EA (P. clypearia water extract) combined with CAZ) | combined-use MIC ([1]; strain P20, EA (P. clypearia 10% ethanol extract) combined with CAZ) | combined-use MIC ([1]; strain P20, EA (P. clypearia water extract) combined with CAZ) | MIC ([2]; Acinetobacter baumannii, strain A5, EA=60% ethanol extract, read-out: MIC) | MIC ([2]; Acinetobacter baumannii, strain A5, EA=95% ethanol extract, read-out: MIC) | MIC ([2]; Acinetobacter baumannii, strain A5, EA=P. clypearia 95% ethanol extract, read-out: single-use MIC) | MIC ([2]; Acinetobacter baumannii, strain A5, single use, EA=10% ethanol extract, read-out: MIC) | MIC ([2]; Acinetobacter baumannii, strain A5, single use, EA=water extract, read-out: MIC)
64 to 512 µg/mL: MIC Range ([2]; MDRABs, EA=60% ethanol extract) | MIC Range ([2]; MDRABs, EA=95% ethanol extract) | MIC Range [2, 8] | MIC Range [2, 9]
1020 µg/mL: MIC ([2]; Acinetobacter baumannii, strain A6, EA=P. clypearia 95% ethanol extract, read-out: single-use MIC) | MIC ([2]; Acinetobacter baumannii, strain A7, EA=P. clypearia 95% ethanol extract, read-out: single-use MIC)
1 µg/mL: combined-use MIC ([1]; strain P11, EA (P. clypearia 10% ethanol extract) combined with CAZ) | combined-use MIC ([1]; strain P11, EA (P. clypearia water extract) combined with CAZ)
2 µg/mL: combined-use MIC ([1]; strain P3, EA (P. clypearia 10% ethanol extract) combined with CAZ) | combined-use MIC ([1]; strain P3, EA (P. clypearia water extract) combined with CAZ) | combined-use MIC ([1]; strain P10, EA (P. clypearia 10% ethanol extract) combined with CAZ) | combined-use MIC ([1]; strain P10, EA (P. clypearia water extract) combined with CAZ) | combined-use MIC ([1]; strain P12, EA (P. clypearia 10% ethanol extract) combined with CAZ) | combined-use MIC ([1]; strain P12, EA (P. clypearia water extract) combined with CAZ) | combined-use MIC ([1]; strain P19, EA (P. clypearia 10% ethanol extract) combined with CAZ) | combined-use MIC ([1]; strain P19, EA (P. clypearia water extract) combined with CAZ)
50%: reduction of the antibiotic's MIC50 vs single use [1, 4] | reduction of the antibiotic's MIC50 vs single use [1, 6] | reduction of the antibiotic's MIC90 vs single use [1, 6]
75%: reduction of the antibiotic's MIC90 vs single use [1, 4] | reduction of the antibiotic's MIC50 vs single use [1, 5] | reduction of the antibiotic's MIC90 vs single use [1, 5] | reduction of the antibiotic's MIC50 vs single use [1, 7] | reduction of the antibiotic's MIC90 vs single use [1, 7]
8 µg/mL: MIC50 of the antibiotic after combined use [1, 5] | MIC50 of the antibiotic after combined use [1, 7] | combined-use MIC ([1]; strain P1, EA (P. clypearia water extract) combined with CAZ) | combined-use MIC ([1]; strain P14, EA (P. clypearia 10% ethanol extract) combined with CAZ) | combined-use MIC ([1]; strain P14, EA (P. clypearia water extract) combined with CAZ) | combined-use MIC ([1]; strain P16, EA (P. clypearia 10% ethanol extract) combined with CAZ) | combined-use MIC ([1]; strain P16, EA (P. clypearia water extract) combined with CAZ) | combined-use MIC ([1]; strain P17, EA (P. clypearia 10% ethanol extract) combined with CAZ) | combined-use MIC ([1]; strain P17, EA (P. clypearia water extract) combined with CAZ)
